These results are taken from patent US20210380606A1, “5-AZAINDAZOLE DERIVATIVES AS ADENOSINE RECEPTOR ANTAGONISTS” (Merck Patent GmbH, priority 2018, published 2021).

Like-named read-outs stand apart in the source and are kept apart here. A value given as a limit tells only on which side of the number the result lay.

The target in assay [1] is T1, human A2A receptors (Homo sapiens, UniProt P29274).
T1 construct: expressed in transfected cells; host or cells: HEK293
The experiment in a line: Functional human A2A receptor activity, recombinant HEK293 cells, cAMP (HTRF). The assay is classed as cell-based. The essentials:
(§1)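 15 min incubation → HTRF cAMP reagents added → cellular cAMP read on plate reader. cAMP serves as adenosine receptor second messenger.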

Assay [2] concerns the target T2, human A2B receptors (Homo sapiens, UniProt P29275).
T2 construct: expressed in transfected cells; host or cells: HEK293
T2 sequence (P29275 1-332): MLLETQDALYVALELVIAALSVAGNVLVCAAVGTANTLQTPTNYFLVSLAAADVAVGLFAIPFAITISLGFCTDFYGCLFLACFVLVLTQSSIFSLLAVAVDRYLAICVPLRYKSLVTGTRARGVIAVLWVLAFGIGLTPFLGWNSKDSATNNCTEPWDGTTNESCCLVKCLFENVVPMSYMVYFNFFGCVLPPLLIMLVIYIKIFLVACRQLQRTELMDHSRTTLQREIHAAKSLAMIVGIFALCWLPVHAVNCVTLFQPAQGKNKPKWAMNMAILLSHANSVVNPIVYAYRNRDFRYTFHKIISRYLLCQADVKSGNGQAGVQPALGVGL
The experiment in a line: Functional human A2B receptor activity, recombinant HEK293 cells, cAMP (HTRF). In kind it is cell-based. The essentials:
as §1
For orientation: Time-resolved FRET reads energy transfer from a long-lived donor to a nearby acceptor.

Setting [3] is: recombinant HEK293 cells expressing human A2A receptor, agonist NECA, cAMP HTRF, 15 min incubation, read-out: A2A (Category).
Where [4] appears, read: recombinant HEK293 cells expressing human A2B receptor, agonist NECA, cAMP HTRF, 15 min incubation, read-out: A2B (Category).

T1 sequence (P29274 whole entry): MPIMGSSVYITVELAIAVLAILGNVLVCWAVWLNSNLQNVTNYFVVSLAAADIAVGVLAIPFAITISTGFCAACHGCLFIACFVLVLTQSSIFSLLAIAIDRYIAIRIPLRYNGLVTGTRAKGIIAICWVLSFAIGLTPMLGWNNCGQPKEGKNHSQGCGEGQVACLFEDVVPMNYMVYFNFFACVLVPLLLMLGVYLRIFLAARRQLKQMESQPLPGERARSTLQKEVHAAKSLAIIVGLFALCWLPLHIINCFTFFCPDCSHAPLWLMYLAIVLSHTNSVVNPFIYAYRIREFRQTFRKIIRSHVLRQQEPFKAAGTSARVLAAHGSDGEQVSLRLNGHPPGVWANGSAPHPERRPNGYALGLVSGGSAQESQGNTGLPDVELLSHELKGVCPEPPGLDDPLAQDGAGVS

For the compound `O=C(c1cc2c(cn1)c(-c1coc3ccccc13)nn2CC(F)(F)F)N1CCCC(F)(F)C1` [Compound 226, [3-(benzofuran-3-yl)-1-(2,2,2-trifluoroethyl)pyrazolo[4,3-c]pyridin-6-yl]-(3,3-difluoro-1-piperidyl)methanone], the IC50 in assay [1] (read-out: A2A (Category)) is less than 100 nM; in assay [2] (read-out: A2B (Category)), less than 1000 nM.

Consider `CC1(C)CC(O)CCN1C(=O)c1cc2c(cn1)c(-c1coc3ccccc13)nn2CS(C)(=O)=O` (centres unmarked) [Compound 35, (3-Benzofuran-3-yl-1-methanesulfonylmethyl-1H-pyrazolo[4,3-c]pyridin-6-yl)-(4-hydroxy-2,2 dimethyl-piperidin-1-yl)-methanone], for which the IC50 in assay [1] (read-out: A2A (Category)) is less than 100 nM; in assay [2] (read-out: A2B (Category)), less than 1000 nM.

In the case of `N#CCn1nc(-c2cnc3ccc(F)cn23)c2cnc(C(=O)N3CCCCCC3)cc21` [Compound 7, [6-(Azepane-1-carbonyl)-3-(6-fluoro-imidazo[1,2-a]pyridin-3-yl)-pyrazolo[4,3-c]pyridin-1-yl]-acetonitrile], the figures for the IC50 in assay [1] (read-out: A2A (Category)) and in assay [2] (read-out: A2B (Category)) were less than 100 nM and less than 1000 nM, respectively.

Consider `CS(=O)(=O)Cn1nc(-c2coc3ccccc23)c2cnc(C(=O)N3CCC(F)(F)CC3)cc21` [Compound 33, (3-Benzofuran-3-yl-1-methanesulfonylmethyl-1H-pyrazolo[4,3-c]pyridin-6-yl)-(4,4-difluoro-piperidin-1-yl)-methanone], for which the IC50 in assay [1] (read-out: A2A (Category)) was less than 100 nM; in assay [2] (read-out: A2B (Category)), less than 1000 nM.

`O=C(c1cc2c(cn1)c(-c1coc3ccccc13)nn2CC(F)(F)F)N1CCOCC(F)(F)C1` [Compound 217]: the IC50 in assay [1] (read-out: A2A (Category)) and in assay [2] (read-out: A2B (Category)) was less than 100 nM each time.

For the compound `O=C(c1cc2c(cn1)c(-c1cnc3c(F)cc(F)cn13)nn2CC(F)(F)F)N1CCCC(CO)C1` (centres unmarked) [Compound 161, [3-(6,8-Difluoro-imidazo[1,2-a]pyridin-3-yl)-1-(2,2,2-trifluoro-ethyl)-1H-pyrazolo[4,3-c]pyridin-6-yl]-(3-hydroxymethyl-piperidin-1-yl)-methanone], the IC50 in assay [1] (read-out: A2A (Category)) is less than 100 nM; in assay [2] (read-out: A2B (Category)) it was less than 1000 nM.

As to `O=C1CN(C(=O)c2cc3c(cn2)c(-c2cnc4c(F)cc(F)cn24)nn3CC(F)(F)F)CCCN1` [Compound 201, 4-[3-(6,8-Difluoro-imidazo[1,2-a]pyridin-3-yl)-1-(2,2,2-trifluoro-ethyl)-1H-pyrazolo[4,3-c]pyridine-6-carbonyl]-1,4-diazepan-2-one], the IC50 in assay [1] (read-out: A2A (Category)) is less than 100 nM; in assay [2] (read-out: A2B (Category)), less than 1000 nM.

As for `O=C(c1cc2c(cn1)c(-c1coc3ccccc13)nn2CC(F)(F)F)N1CC2CCC(C1)C2O` (stereo not drawn) [Compound 218, [3-Benzofuran-3-yl-1-(2,2,2-trifluoro-ethyl)-1H-pyrazolo[4,3-c]pyridin-6-yl]-(8-endo-hydroxy-3-aza-bicyclo[3.2.1]oct-3-yl)-methanone], the IC50 in assay [1] (read-out: A2A (Category)) and in assay [2] (read-out: A2B (Category)) was less than 100 nM each time.

`COCn1nc(-c2cnc3ccc(F)cn23)c2cnc(C(=O)N3CCCCCC3)cc21` [Compound 6, Azepan-1-yl-[3-(6-fluoro-imidazo[1,2-a]pyridin-3-yl)-1-methoxymethyl-1H-pyrazolo[4,3-c]pyridin-6-yl]-methanone]: the figures for the IC50 in assay [1] (read-out: A2A (Category)) and in assay [2] (read-out: A2B (Category)) were less than 100 nM and less than 1000 nM, respectively.

With `O=C(c1ccc2c(-c3cnc4ccc(F)cn34)nn(CC(F)(F)F)c2c1)N1CCCCCC1` [analogue to No. 44, reference compound], the IC50 in assay [1] (read-out: Functional A2A receptor activity, HEK293, cAMP, IC50) was less than 100 nM; in assay [2] (read-out: Functional A2B receptor activity HEK293, cAMP IC50) it was less than 1000 nM.

Consider `O=C(c1cc2c(cn1)c(-c1cnc3c(F)cc(F)cn13)nn2CC(F)(F)F)N1CCCS(=O)(=O)CC1` [Compound 180, [3-(6,8-Difluoro-imidazo[1,2-a]pyridin-3-yl)-1-(2,2,2-trifluoro-ethyl)-1H-pyrazolo[4,3-c]pyridin-6-yl]-1,4-thiazepan-1,1-dioxide-4-yl-methanone], for which the IC50 in assay [1] (read-out: A2A (Category)) is less than 100 nM; in assay [2] (read-out: A2B (Category)), less than 1000 nM.

On to `O=C(c1cc2c(cn1)c(-c1coc3ccccc13)nn2CC(F)(F)F)N1[C@@H]2CC[C@H]1C[C@@H](O)C2` [Compound 209, [3-Benzofuran-3-yl-1-(2,2,2-trifluoro-ethyl)-1H-pyrazolo[4,3-c]pyridin-6-yl]-(3-endo-hydroxy-8-aza-bicyclo[3.2.1]oct-8-yl)-methanone], for which the IC50 in assay [1] (read-out: A2A (Category)) and in assay [2] (read-out: A2B (Category)) was less than 100 nM throughout.

Take `O=C(c1cc2c(cn1)c(-c1ccc3ccccn13)nn2CC(F)(F)F)N1CCCCCC1` [Compound 52, Azepan-1-yl-[3-indolizin-3-yl-1-(2,2,2-trifluoro-ethyl)-1H-pyrazolo[4,3-c]pyridin-6-yl]-methanone]: the IC50 in assay [1] (read-out: A2A (Category)) is less than 100 nM; in assay [2] (read-out: A2B (Category)), less than 1000 nM.

In the case of `O=C(c1cc2c(cn1)c(-c1cnc3ccc(O)cn13)nn2CC(F)(F)F)N1CCCCCC1` [Compound 68, Azepan-1-yl-[3-(6-hydroxy-imidazo[1,2-a]pyridin-3-yl)-1-(2,2,2-trifluoro-ethyl)-1H-pyrazolo[4,3-c]pyridin-6-yl]-methanone], the IC50 in assay [1] (read-out: A2A (Category)) was less than 100 nM; in assay [2] (read-out: A2B (Category)), less than 1000 nM.

For the compound `COCC1CCCN1C(=O)c1cc2c(cn1)c(-c1coc3ccccc13)nn2CS(C)(=O)=O` (centres unmarked) [Compound 34, (3-Benzofuran-3-yl-1-methanesulfonylmethyl-1H-pyrazolo[4,3-c]pyridin-6-yl)-(2-methoxymethyl-pyrrolidin-1-yl)-methanone], the IC50 in assay [1] (read-out: A2A (Category)) was less than 100 nM; in assay [2] (read-out: A2B (Category)), less than 1000 nM.

Consider `COCC1CCCN1C(=O)c1cc2c(cn1)c(-c1coc3ccccc13)nn2CC(F)(F)F` (centres unmarked) [Compound 215, [3-Benzofuran-3-yl-1-(2,2,2-trifluoro-ethyl)-1H-pyrazolo[4,3-c]pyridin-6-yl]-(2-methoxymethyl-pyrrolidin-1-yl)-methanone], for which the IC50 is less than 100 nM in assay [1] (read-out: A2A (Category)) and less than 1000 nM in assay [2] (read-out: A2B (Category)).

In the case of `[2H]C1([2H])COCCN(C(=O)c2cc3c(cn2)c(-c2coc4ccccc24)nn3CC(F)(F)F)C1` [Compound 229, [3-(benzofuran-3-yl)-1-(2,2,2-trifluoroethyl)pyrazolo[4,3-c]pyridin-6-yl]-(6,6-dideuterio-1,4-oxazepan-4-yl)methanone], the IC50 in assay [1] (read-out: A2A (Category)) and in assay [2] (read-out: A2B (Category)) was less than 100 nM in each case.

`O=C(c1cc2c(cn1)c(-c1cnc3ccccn13)nn2CC(F)(F)F)N1CCCCCC1` [Compound 55, Azepan-1-yl-[3-imidazo[1,2-a]pyridin-3-yl-1-(2,2,2-trifluoro-ethyl)-1H-pyrazolo[4,3-c]pyridin-6-yl]-methanone]: the IC50 in assay [1] (read-out: A2A (Category)) was less than 100 nM; in assay [2] (read-out: A2B (Category)), less than 1000 nM.

`O=C(c1cc2c(cn1)c(-c1cnc3c(F)cc(F)cn13)nn2CC(F)(F)F)N1CC2CC3CC(C2)CC1C3` [Compound 169, (4-Aza-tricyclo[4.3.1.1*3,8*]undec-4-yl)-[3-(6,8-difluoro-imidazo[1,2-a]pyridin-3-yl)-1-(2,2,2-trifluoro-ethyl)-1H-pyrazolo[4,3-c]pyridin-6-yl]-methanone]: the IC50 in assay [1] (read-out: A2A (Category)) and in assay [2] (read-out: A2B (Category)) was less than 100 nM each time.

Consider `O=C(c1cc2c(cn1)c(-c1cnc3c(F)cc(F)cn13)nn2CC(F)(F)F)N1CCCCCC1` [Compound 60, Azepan-1-yl-[3-(6,8-difluoro-imidazo[1,2-a]pyridin-3-yl)-1-(2,2,2-trifluoro-ethyl)-1H-pyrazolo[4,3-c]pyridin-6-yl]-methanone], for which the IC50 in assay [1] (read-out: A2A (Category)) and in assay [2] (read-out: A2B (Category)) was less than 100 nM throughout.

As for `O=C(c1cc2c(cn1)c(-c1cnc3c(F)cc(F)cn13)nn2CC(F)(F)F)N1C2CCC1CC(O)C2` (stereo not drawn) [Compound 171, [3-(6,8-Difluoro-imidazo[1,2-a]pyridin-3-yl)-1-(2,2,2-trifluoro-ethyl)-1H-pyrazolo[4,3-c]pyridin-6-yl]-(3-exo-hydroxy-8-aza-bicyclo[3.2.1]oct-8-yl)-methanone], the IC50 is less than 100 nM in assay [1] (setting [3]) and less than 1000 nM in assay [2] (setting [4]).

With `O=C(c1cc2c(cn1)c(-c1cnc3c(F)cc(F)cn13)nn2CC(F)(F)F)N1CC2CCC(C1)O2` [Compound 83, [3-(6,8-Difluoro-imidazo[1,2-a]pyridin-3-yl)-1-(2,2,2-trifluoro-ethyl)-1H-pyrazolo[4,3c]pyridin-6-yl]-(8-oxa-3-aza-bicyclo[3.2.1]oct-3-yl)-methanone], the IC50 in assay [1] (read-out: A2A (Category)) is less than 100 nM; in assay [2] (read-out: A2B (Category)) it was less than 1000 nM.

Take `NC(=O)Cn1nc(-c2coc3ccccc23)c2cnc(C(=O)N3CCCOCC3)cc21` [Compound 105, 2-[3-Benzofuran-3-yl-6-(1,4-oxazepane-4-carbonyl)-pyrazolo[4,3-c]pyridin-1-yl]-acetamide]: the results for the IC50 in assay [1] (read-out: A2A (Category)) and in assay [2] (read-out: A2B (Category)) were less than 100 nM and less than 1000 nM, respectively.

As for `O=C(c1cc2c(cn1)c(-c1cnc3c(F)cc(F)cn13)nn2CC(F)(F)F)N1CC2CCC(C1)C2O` (stereo not drawn) [Compound 187, [3-(6,8-Difluoro-imidazo[1,2-a]pyridin-3-yl)-1-(2,2,2-trifluoro-ethyl)-1H-pyrazolo[4,3-c]pyridin-6-yl]-(8-endo-hydroxy-3-aza-bicyclo[3.2.1]oct-3-yl)-methanone], the IC50 in assay [1] (setting [3]) was less than 100 nM; in assay [2] (setting [4]) it was less than 1000 nM.

As to `[2H]C1([2H])COCCN(C(=O)c2cc3c(cn2)c(-c2c[nH]c4ccccc24)nn3CC(F)(F)F)C1` [Example 242, (6,6-dideuterio-1,4-oxazepan-4-yl)-[3-(1H-indol-3-yl)-1-(2,2,2-trifluoroethyl)pyrazolo[4,3-c]pyridin-6-yl]methanone], the IC50 is less than 100 nM in assay [1] (read-out: A2A (Category)) and less than 1000 nM in assay [2] (read-out: A2B (Category)).
